According to ChEMBL document CHEMBL1151883, “Design and synthesis of bisenediyne bissulfones and their reactivity under basic condition” (Bioorg Med Chem Lett, 2009):
Calls of active or inactive are those of the source. The calls are words filed in the database; no cut-off is given here.

Legend:
Format in all cases: nucleic-acid assay
Conditions in all cases: Escherichia coli
Nucleic Acid [1] = experiment: Induction of supercoiled pBR322 DNA cleavage at PH 7.2 after 8 hrs at 37 degC in absence of triethylamine
Nucleic Acid [2] = experiment: Induction of supercoiled pBR322 DNA cleavage at PH 7.2 after 16 hrs at 37 degC in absence of triethylamine
Nucleic Acid [3] = experiment: Induction of supercoiled pBR322 DNA cleavage at PH 7.2 after 16 hrs at 37 degC in presence of triethylamine
Nucleic Acid [4] = experiment: Induction of supercoiled pBR322 DNA cleavage at PH 7.2 after 8 hrs at 37 degC in presence of triethylamine

Compound	Activity (Nucleic Acid [1])	Activity (Nucleic Acid [2])	Activity (Nucleic Acid [3]) [%]	Activity (Nucleic Acid [4]) [%]
O=S(=O)(C=C=Cc1ccccc1C#CC#Cc1ccccc1C#CCS(=O)(=O)c1ccccc1)c1ccccc1	Active	Active		
O=S(=O)(CC#Cc1ccccc1C#Cc1ccccc1C#CCS(=O)(=O)c1ccccc1)c1ccccc1			45	45
O=S(=O)(C=C=Cc1ccccc1C#Cc1ccccc1C#CCS(=O)(=O)c1ccccc1)c1ccccc1	Active	Active		
O=S(=O)(CC#Cc1ccccc1C#CC#Cc1ccccc1C#CCS(=O)(=O)c1ccccc1)c1ccccc1			62	47
